Data as given in ChEMBL document CHEMBL1212924 (J Med Chem, 2010).
pIC50: −log10 of the molar value. Each block holds one compound with its values, some of them ahead of it. Active and inactive are the calls of the source. The rule behind the calls is not given here.

Tests used:
in vitro = conditions: human, liver microsomes
Description: Half life in human liver microsome at 2 mg/mL

[1] = biological target: Rho-associated protein kinase 2 (Homo sapiens, UniProt O75116)
CYP2C9 = CYP2C9 (Homo sapiens, UniProt P11712); assay: Inhibition of CYP2C9 at 10 uM; format: ADME
[2] = biological target: Rho-associated protein kinase 1 (Homo sapiens, UniProt Q13464)
CYP3A4 = CYP3A4 (Homo sapiens, UniProt P08684); assay: Inhibition of CYP3A4 at 10 uM; format: ADME
CYP1A2 = biological target: T1, CYP1A2 (Homo sapiens, UniProt P05177); assay: Inhibition of CYP1A2 at 10 uM; format: ADME
T1 sequence (P05177 whole entry): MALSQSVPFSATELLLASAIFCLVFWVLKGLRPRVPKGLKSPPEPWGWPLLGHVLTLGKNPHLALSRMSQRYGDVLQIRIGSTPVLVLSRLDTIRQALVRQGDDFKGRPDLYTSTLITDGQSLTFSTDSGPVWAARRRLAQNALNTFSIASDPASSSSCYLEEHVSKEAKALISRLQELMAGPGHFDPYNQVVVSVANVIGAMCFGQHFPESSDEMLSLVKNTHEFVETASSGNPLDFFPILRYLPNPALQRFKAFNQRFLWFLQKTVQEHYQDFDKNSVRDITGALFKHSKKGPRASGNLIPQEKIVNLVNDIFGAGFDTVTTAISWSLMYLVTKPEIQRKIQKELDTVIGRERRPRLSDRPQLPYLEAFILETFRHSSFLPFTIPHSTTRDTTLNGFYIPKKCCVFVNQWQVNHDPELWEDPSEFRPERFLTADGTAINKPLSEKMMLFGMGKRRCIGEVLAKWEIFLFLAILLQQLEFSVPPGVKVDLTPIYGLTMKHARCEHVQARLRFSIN

[3] = biological target: Serine/threonine-protein kinase MRCK alpha (Homo sapiens, UniProt Q5VT25); assay: Inhibition of MRCKalpha
[4] = biological target: Mitogen-activated protein kinase 10 (Homo sapiens, UniProt P53779)
CYP2D6 = CYP2D6 (Homo sapiens, UniProt P10635); assay: Inhibition of CYP2D6 at 10 uM; format: ADME
[5] = Inhibition of p38
Rattus norvegicus = assay: Reduction in intraocular pressure in Brown norway rat at 40 ug administered as drops in eye after 2 hrs; format: functional, organism-based
[6] = Clearance in rat at 1 mg/kg, iv and 2 mg/kg, po; format: ADME, organism-based; conditions: in vivo
[7] = biological target: Serine/threonine-protein kinase 38 (Homo sapiens) (UniProt Q15208); assay: Inhibition of NDR1 at 3 uM
[8] = biological target: T2, Serine/threonine-protein kinase LATS2 (Homo sapiens) (UniProt Q9NRM7); assay: Inhibition of Lats2 at 3 uM
T2 sequence (whole entry): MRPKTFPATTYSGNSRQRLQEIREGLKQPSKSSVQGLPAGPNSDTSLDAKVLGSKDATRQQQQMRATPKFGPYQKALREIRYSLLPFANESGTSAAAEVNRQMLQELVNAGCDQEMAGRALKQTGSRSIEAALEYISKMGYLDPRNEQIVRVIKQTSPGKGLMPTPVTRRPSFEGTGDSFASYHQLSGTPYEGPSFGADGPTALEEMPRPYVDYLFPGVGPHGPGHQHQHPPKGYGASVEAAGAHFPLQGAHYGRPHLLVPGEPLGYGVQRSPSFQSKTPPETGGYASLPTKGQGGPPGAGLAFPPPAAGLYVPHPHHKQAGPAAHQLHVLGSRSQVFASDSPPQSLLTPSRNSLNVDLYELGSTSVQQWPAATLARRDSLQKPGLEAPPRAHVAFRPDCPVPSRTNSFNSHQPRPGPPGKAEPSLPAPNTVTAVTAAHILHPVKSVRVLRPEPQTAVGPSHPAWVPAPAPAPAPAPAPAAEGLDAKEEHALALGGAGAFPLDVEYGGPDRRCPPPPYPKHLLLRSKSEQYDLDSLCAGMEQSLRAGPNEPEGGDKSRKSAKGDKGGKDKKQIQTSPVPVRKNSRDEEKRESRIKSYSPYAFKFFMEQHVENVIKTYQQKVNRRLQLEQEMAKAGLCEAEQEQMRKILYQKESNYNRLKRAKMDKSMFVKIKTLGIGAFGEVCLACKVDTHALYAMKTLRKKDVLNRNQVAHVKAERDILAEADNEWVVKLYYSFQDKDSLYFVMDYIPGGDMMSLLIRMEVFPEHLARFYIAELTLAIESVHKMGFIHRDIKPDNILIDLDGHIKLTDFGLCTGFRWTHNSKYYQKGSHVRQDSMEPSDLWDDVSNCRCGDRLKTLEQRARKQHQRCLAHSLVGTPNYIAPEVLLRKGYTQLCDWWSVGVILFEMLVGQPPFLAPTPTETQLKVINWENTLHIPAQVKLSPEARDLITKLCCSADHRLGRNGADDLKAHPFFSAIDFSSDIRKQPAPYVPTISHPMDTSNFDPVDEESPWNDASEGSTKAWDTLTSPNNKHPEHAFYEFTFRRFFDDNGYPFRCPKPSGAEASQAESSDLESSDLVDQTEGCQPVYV

[9] = biological target: Serine/threonine-protein kinase 33 (Homo sapiens) (UniProt Q9BYT3); assay: Inhibition of STK33 at 3 uM
[10] = biological target: Dual specificity protein kinase CLK4 (Homo sapiens) (UniProt Q9HAZ1); assay: Inhibition of CLK4 at 3 uM
[11] = Volume of distribution in rat at 1 mg/kg, iv and 2 mg/kg, po; format: ADME, organism-based; conditions: in vivo
[12] = biological target: Serine/threonine-protein kinase MRCK beta (Homo sapiens) (UniProt Q9Y5S2); assay: Inhibition of MRCKbeta at 3 uM
[13] = biological target: Phosphatidylinositol 4,5-bisphosphate 3-kinase catalytic subunit beta isoform (Homo sapiens) (UniProt P42338); assay: Inhibition of PI3Kbeta at 3 uM
[14] = biological target: Dual specificity protein kinase CLK1 (Homo sapiens) (UniProt P49759); assay: Inhibition of CLK1 at 3 uM
[15] = Oral bioavailability in rat at 2 mg/kg; format: ADME, organism-based; conditions: in vivo
[16] = Half life in rat at 1 mg/kg, iv and 2 mg/kg, po; format: ADME, organism-based; conditions: in vivo
[17] = Cmax in rat at 2 mg/kg, po; format: ADME, organism-based; parameters: dose 2 mg/kg, route oral; conditions: in vivo

Mitogen-activated protein kinase 10, sequence (P53779 whole entry): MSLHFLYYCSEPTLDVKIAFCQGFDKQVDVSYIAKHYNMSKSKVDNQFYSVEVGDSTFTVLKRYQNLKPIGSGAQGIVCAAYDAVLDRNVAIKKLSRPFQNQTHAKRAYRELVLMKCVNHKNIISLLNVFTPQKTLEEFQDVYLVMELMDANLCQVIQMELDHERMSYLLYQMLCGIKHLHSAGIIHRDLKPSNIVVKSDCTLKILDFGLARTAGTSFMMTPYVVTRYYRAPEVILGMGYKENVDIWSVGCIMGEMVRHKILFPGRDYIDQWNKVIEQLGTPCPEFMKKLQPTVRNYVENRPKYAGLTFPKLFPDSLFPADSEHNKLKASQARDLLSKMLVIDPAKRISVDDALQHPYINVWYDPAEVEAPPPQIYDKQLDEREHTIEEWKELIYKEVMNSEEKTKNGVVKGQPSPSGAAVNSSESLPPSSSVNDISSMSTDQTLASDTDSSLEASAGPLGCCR
Rho-associated protein kinase 2, sequence (O75116 whole entry): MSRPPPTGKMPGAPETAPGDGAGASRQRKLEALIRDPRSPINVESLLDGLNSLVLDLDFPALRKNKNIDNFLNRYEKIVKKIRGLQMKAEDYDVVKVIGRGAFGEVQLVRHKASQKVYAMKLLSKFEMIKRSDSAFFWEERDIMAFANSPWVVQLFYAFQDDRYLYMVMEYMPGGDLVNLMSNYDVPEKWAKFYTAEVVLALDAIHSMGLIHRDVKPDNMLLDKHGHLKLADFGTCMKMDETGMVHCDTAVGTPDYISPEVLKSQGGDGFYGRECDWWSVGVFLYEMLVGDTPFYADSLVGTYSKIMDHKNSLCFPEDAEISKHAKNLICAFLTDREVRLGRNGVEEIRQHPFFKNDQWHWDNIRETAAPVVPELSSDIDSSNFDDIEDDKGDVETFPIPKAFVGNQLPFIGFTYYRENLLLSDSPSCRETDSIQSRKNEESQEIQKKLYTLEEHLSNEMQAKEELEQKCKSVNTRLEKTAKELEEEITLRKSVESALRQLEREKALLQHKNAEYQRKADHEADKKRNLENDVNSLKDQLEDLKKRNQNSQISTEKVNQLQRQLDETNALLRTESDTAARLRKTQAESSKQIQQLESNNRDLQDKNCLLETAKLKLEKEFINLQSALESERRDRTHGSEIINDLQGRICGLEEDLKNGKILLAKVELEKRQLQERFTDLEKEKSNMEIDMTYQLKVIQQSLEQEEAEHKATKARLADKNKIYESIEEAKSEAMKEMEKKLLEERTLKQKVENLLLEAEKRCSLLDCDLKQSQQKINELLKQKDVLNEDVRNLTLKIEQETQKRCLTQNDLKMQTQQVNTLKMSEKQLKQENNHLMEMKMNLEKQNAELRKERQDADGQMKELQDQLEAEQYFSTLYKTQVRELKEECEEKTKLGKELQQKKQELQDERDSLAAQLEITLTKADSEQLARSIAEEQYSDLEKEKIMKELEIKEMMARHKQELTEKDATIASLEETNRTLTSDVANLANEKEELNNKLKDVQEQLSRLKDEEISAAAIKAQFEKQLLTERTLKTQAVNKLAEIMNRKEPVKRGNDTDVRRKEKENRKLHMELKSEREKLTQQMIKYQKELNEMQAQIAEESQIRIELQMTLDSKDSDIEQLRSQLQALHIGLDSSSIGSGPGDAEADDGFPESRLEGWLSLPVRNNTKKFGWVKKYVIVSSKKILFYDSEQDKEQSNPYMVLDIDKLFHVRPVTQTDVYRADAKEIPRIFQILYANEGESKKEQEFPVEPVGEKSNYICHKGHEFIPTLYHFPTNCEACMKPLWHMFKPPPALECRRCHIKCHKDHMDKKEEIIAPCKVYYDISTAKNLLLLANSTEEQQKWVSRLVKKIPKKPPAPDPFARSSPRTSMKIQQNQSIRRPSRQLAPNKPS
Rho-associated protein kinase 1, sequence (Q13464 whole entry): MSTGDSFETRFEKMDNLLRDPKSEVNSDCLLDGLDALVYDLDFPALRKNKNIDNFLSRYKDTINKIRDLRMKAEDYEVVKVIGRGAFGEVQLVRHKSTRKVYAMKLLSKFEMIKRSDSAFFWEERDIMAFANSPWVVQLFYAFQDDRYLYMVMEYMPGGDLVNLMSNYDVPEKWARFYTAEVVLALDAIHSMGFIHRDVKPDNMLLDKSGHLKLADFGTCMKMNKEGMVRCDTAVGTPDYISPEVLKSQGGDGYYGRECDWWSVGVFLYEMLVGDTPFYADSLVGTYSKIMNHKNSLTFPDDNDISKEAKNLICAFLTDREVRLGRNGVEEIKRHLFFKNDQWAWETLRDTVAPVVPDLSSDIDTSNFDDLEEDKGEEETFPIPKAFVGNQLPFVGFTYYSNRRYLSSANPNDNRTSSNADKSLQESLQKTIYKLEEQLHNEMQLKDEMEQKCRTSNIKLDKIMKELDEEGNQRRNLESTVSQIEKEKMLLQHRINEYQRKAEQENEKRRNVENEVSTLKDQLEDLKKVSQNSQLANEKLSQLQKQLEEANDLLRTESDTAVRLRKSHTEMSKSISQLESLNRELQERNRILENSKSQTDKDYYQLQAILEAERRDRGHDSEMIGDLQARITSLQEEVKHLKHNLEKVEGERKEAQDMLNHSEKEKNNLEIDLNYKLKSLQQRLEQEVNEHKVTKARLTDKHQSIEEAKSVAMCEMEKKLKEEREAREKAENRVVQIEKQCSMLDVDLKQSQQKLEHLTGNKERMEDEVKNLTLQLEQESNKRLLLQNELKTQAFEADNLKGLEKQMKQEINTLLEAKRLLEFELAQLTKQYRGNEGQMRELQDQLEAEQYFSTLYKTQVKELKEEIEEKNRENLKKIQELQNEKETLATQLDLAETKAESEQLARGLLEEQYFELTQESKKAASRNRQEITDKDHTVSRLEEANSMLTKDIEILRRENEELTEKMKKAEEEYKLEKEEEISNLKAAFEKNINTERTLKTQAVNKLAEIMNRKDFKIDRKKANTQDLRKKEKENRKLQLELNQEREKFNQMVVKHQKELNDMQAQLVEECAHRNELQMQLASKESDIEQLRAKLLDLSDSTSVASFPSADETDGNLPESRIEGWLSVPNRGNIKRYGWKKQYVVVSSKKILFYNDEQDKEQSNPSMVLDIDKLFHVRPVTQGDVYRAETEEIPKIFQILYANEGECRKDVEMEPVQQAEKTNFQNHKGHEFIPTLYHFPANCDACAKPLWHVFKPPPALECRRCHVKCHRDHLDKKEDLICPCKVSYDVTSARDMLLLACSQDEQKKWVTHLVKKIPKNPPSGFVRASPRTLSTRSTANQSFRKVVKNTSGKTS
CYP2C9, sequence (P11712 whole entry): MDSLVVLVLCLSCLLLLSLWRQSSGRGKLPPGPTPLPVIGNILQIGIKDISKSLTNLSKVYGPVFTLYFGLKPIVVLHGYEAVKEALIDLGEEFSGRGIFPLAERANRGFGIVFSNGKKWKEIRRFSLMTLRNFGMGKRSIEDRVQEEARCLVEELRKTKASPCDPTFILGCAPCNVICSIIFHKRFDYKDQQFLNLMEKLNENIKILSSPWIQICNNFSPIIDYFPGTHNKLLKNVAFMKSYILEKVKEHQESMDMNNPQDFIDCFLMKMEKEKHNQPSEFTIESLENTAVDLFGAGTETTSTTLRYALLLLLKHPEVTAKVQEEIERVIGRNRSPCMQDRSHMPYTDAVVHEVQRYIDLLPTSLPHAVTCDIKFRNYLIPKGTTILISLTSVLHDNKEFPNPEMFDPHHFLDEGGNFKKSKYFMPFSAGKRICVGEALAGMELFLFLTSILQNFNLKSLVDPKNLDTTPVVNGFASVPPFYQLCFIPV
CYP3A4, sequence (P08684 whole entry): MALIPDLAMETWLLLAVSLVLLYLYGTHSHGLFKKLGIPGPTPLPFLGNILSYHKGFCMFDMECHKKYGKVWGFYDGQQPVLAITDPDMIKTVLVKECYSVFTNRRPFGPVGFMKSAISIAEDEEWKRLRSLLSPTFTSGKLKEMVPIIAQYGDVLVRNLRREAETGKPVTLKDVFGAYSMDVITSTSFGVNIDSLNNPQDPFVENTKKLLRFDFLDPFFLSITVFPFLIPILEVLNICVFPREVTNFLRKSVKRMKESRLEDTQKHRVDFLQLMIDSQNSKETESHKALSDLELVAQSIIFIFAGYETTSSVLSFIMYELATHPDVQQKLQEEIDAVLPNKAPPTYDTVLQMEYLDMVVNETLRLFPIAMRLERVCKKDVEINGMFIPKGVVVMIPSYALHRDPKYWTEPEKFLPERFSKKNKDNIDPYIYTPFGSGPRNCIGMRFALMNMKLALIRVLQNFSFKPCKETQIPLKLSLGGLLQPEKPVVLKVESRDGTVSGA
CYP2D6, sequence (P10635 whole entry): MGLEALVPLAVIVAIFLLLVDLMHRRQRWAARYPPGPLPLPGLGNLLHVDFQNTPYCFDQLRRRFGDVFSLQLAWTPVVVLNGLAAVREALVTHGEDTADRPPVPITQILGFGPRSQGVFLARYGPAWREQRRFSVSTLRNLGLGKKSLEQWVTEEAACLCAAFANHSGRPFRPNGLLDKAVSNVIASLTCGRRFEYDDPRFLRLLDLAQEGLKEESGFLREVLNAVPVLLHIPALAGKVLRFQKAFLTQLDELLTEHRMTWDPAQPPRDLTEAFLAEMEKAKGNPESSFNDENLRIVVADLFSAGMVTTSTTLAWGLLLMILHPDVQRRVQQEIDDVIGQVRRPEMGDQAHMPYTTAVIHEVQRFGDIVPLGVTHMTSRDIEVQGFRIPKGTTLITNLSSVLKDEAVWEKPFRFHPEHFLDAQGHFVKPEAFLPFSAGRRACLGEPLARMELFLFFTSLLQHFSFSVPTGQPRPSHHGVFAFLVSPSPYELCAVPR

Structure (SMILES): N[C@H](Cc1cccc(F)c1)C(=O)Nc1ccc(-c2cn[nH]c2)cc1
half-life (in vitro): 1.12 h

Structure (SMILES): NC(C(=O)Nc1ccc(-c2cn[nH]c2)cc1)c1ccc(Cl)cc1 (configuration not stated)
half-life (in vitro): 1.4 h

Structure (SMILES): COc1ccc2c(c1)CN[C@@H](C(=O)Nc1ccc(-c3cn[nH]c3)cc1OCCN(C)C)C2
pIC50 [1]: 6.07

Structure (SMILES): CCN1Cc2ccccc2C[C@@H]1C(=O)Nc1cc(F)c(-c2cn[nH]c2)cc1OCCN(C)C
inhibition at 10 µM (CYP2C9): 70% | pIC50 [2]: 7.80 | inhibition at 10 µM (CYP3A4): 39% | inhibition at 10 µM (CYP1A2): -24% | pIC50 [3]: 6.09 | pIC50 [4]: < 4.70 | inhibition at 10 µM (CYP2D6): 52% | half-life (in vitro): 0.0167 h | pIC50 [5]: < 4.70

Structure (SMILES): NC(Cc1ccc(Cl)cc1)C(=O)Nc1ccc(-c2cn[nH]c2)cc1 (configuration not stated)
half-life (in vitro): 1.12 h

Structure (SMILES): CN(C)CCOc1cc(-c2cn[nH]c2)c(F)cc1NC(=O)[C@H]1Cc2ccccc2CN1CC1CC1
clearance [6]: 42 mL/min/kg | Vd [11]: 7 L/kg | half-life (in vitro): 0.05 h | bioavailability [15]: 0% | half-life [16]: 2.3 h

Structure (SMILES): COc1cccc2c1CNC(C(=O)Nc1ccc(-c3cn[nH]c3)cc1OCCN(C)C)C2 (racemic)
pIC50 [1]: 6.58

Structure (SMILES): CCN1Cc2ccc(OC)cc2C[C@@H]1C(=O)Nc1cc(F)c(-c2cn[nH]c2)cc1OCCN(C)C
clearance [6]: 130 mL/min/kg | Vd [11]: 17 L/kg | half-life (in vitro): 0.183 h | bioavailability [15]: 0% | half-life [16]: 1.7 h

Structure (SMILES): CCOc1ccc2c(c1)CC(C(=O)Nc1ccc(-c3cn[nH]c3)cc1OCCN(C)C)NC2 (racemic)
pIC50 [1]: 6.81

Structure (SMILES): CN(C)CCOc1cc(-c2cn[nH]c2)c(F)cc1NC(=O)[C@H]1Cc2ccccc2CN1C
half-life (in vitro): 0.267 h

Structure (SMILES): CN(C)CCOc1cc(-c2cn[nH]c2)ccc1NC(=O)C1NCCc2ccccc21 (configuration not stated)
half-life (in vitro): 0.233 h

Structure (SMILES): COc1ccc2c(c1)C[C@H](C(=O)Nc1ccc(-c3cn[nH]c3)cc1)NC2
pIC50 [1]: 6.48

Structure (SMILES): CN(C)CCOc1cc(-c2cn[nH]c2)c(F)cc1NC(=O)[C@H]1Cc2ccccc2CN1
Cmax [17]: 18 nM | inhibition at 10 µM (CYP2C9): 62% | clearance [6]: 106 mL/min/kg | pIC50 [2]: 7.48 | inhibition at 10 µM (CYP3A4): 18% | Vd [11]: 24 L/kg | inhibition at 10 µM (CYP1A2): 31% | pIC50 [3]: 6.48 | pIC50 [4]: < 4.70 | inhibition at 10 µM (CYP2D6): 77% | half-life (in vitro): 0.75 h | pIC50 [5]: < 4.70 | bioavailability [15]: 16% | half-life [16]: 2.7 h

Structure (SMILES): CN(C)CCOc1cc(-c2cn[nH]c2)c(F)cc1NC(=O)[C@H]1Cc2ccccc2CN1C(=O)CN(C)C
pIC50 [1]: 6.11 | half-life (in vitro): 0.233 h

The next lines start with results.

half-life (in vitro): 0.717 h
Structure (SMILES): COCCOc1cc(-c2cn[nH]c2)ccc1NC(=O)[C@H]1Cc2cc(OC)ccc2CN1

half-life (in vitro): 0.183 h
Structure (SMILES): COc1ccc2c(c1)C[C@H](C(=O)Nc1ccc(-c3c[nH]nc3C)cc1SCCN(C)C)NC2

half-life (in vitro): 1.63 h
Structure (SMILES): CN(C)CCOc1cc(-c2cn[nH]c2)ccc1NC(=O)[C@@H]1Cc2ccccc2CN1

half-life (in vitro): 1.87 h
Structure (SMILES): COc1ccc2c(c1)C[C@H](C(=O)Nc1c(F)cc(-c3cn[nH]c3)cc1OCCN(C)C)NC2

inhibition at 10 µM (CYP2C9): 45% | clearance [6]: 41 mL/min/kg | inhibition [7]: 72% | inhibition [8]: 75% | inhibition [9]: 66% | inhibition [10]: 91% | pIC50 [2]: 8.00 | inhibition at 10 µM (CYP3A4): 15% | Vd [11]: 9.5 L/kg | inhibition at 10 µM (CYP1A2): 3% | inhibition [12]: 77% | pIC50 [3]: 6.17 | pIC50 [4]: < 4.70 | inhibition at 10 µM (CYP2D6): 52% | inhibition [13]: 74% | half-life (in vitro): 1.02 h | pIC50 [5]: < 4.70 | inhibition [14]: 86% | bioavailability [15]: 0% | half-life [16]: 3.4 h
Structure (SMILES): COc1ccc2c(c1)C[C@H](C(=O)Nc1ccc(-c3cn[nH]c3)cc1OCC1CCN(C)CC1)NC2
Activity (Rattus norvegicus): Active

half-life (in vitro): 1.73 h
Structure (SMILES): COc1ccc2c(c1)C[C@H](C(=O)Nc1ccc(-c3cn[nH]c3)cc1OC1CCN(C)CC1)NC2

half-life (in vitro): 1.63 h
Structure (SMILES): CN(C)CCOc1cc(-c2cn[nH]c2)ccc1NC(=O)[C@H]1Cc2ccccc2CN1

half-life (in vitro): 0.283 h
Structure (SMILES): CN(C)CCOc1cc(-c2cn[nH]c2)ccc1NC(=O)[C@@H]1Cc2cc(Cl)ccc2CN1

half-life (in vitro): 1.68 h
Structure (SMILES): COc1ccc2c(c1)C[C@@H](C(=O)Nc1ccc(-c3cn[nH]c3)cc1OCCN(C)C)NC2

half-life (in vitro): 1.05 h
Structure (SMILES): COc1ccc2c(c1)C[C@H](C(=O)Nc1ccc(-c3cn[nH]c3)cc1OCCN1CCCC1)NC2

half-life (in vitro): 0.05 h
Structure (SMILES): COc1ccc2c(c1)C[C@H](C(=O)Nc1ccc(-c3cn[nH]c3)cc1SCCC(=O)N(C)C)NC2

half-life (in vitro): 2.02 h
Structure (SMILES): CN(C)CCOc1cc(-c2cn[nH]c2)ccc1NC(=O)[C@H]1Cc2cc(Cl)ccc2CN1

Cmax [17]: 32 nM | clearance [6]: 4.6 mL/min/kg | Vd [11]: 0.49 L/kg | half-life (in vitro): 0.85 h | bioavailability [15]: 0.3% | half-life [16]: 1.5 h
Structure (SMILES): COc1ccc2c(c1)C[C@H](C(=O)Nc1cc(F)c(-c3cn[nH]c3)cc1OCCN(C)C)NC2

half-life (in vitro): 1.2 h
Structure (SMILES): COc1ccc2c(c1)C[C@H](C(=O)Nc1ccc(-c3cn[nH]c3)c(F)c1OCCN(C)C)NC2

half-life (in vitro): 0.367 h
Structure (SMILES): COc1ccc2c(c1)C[C@H](C(=O)Nc1ccc(-c3cn[nH]c3)cc1SCCN(C)C)NC2

Cmax [17]: 242 nM | inhibition at 10 µM (CYP2C9): 31% | clearance [6]: 17 mL/min/kg | pIC50 [2]: 7.32 | inhibition at 10 µM (CYP3A4): -3% | Vd [11]: 7.2 L/kg | inhibition at 10 µM (CYP1A2): 21% | pIC50 [3]: 5.27 | pIC50 [4]: < 4.70 | inhibition at 10 µM (CYP2D6): 40% | pIC50 [5]: < 4.70 | bioavailability [15]: 28% | half-life [16]: 5.5 h
Structure (SMILES): COc1ccc2c(c1)C[C@H](C(=O)Nc1ccc(-c3cn[nH]c3)cc1OCCN(C)C)NC2
